Assay results: US20230372276A1, “METHODS FOR DELIVERING MEDIUM CHAIN TRIGLYCERIDES WITH CONTROLLED PHARMACOKINETIC, SAFETY AND TOLERABILITY PROFILES” (Cerecin Inc., priority 2020, published 2023)

What was measured:
[1] = Ethnicity analysis of total ketone exposure, Chinese vs Caucasian (Study 2 parts combined); format: in vivo, human (healthy young male Caucasian and Asian volunteers); conditions: healthy participants
Description: The present example investigates the pharmacokinetics, safety and tolerability of tricaprilin in healthy young male Caucasian and Asian volunteers to understand and elucidate any differences between the two populations and any identify any ethnic sensitivities. In this example, data from several studies were analyzed to evaluate any ethnicity differences in safety and tolerability of tricaprilin. The analyzed studies included Caucasian and Asian (Chinese) subjects and several analyses were conducted to compare the effects in Caucasians vs Asian. Ethnic Chinese participants were defined as all four grandparents being Chinese. The level of total ketones were quantitated using a validated LC-MS/MS bioanalytical assay.
Methods: Study 1 was a food effect study of a spray dried formulation of tricaprilin (AC-SD-01), conducted in healthy young males. […] Both of these studies included Caucasian and Asian (Chinese) subjects and several analyses were conducted to compare the effects in Caucasians vs Chinese. To explore whether ethnicity affects total ketone body exposure after tricaprilin administration, the pharmacokinetic parameters AUC0-t and Cmax from Study 2 were examined and grouped by an individual's ethnicity (Chinese or Caucasian).

[2] = both, human, in vivo

Exposure to total ketones, ethnic Chinese compared to Caucasians [1]: no different
increase of geometric mean Cmax for AcAc [2]: 2.3 fold
increase of geometric mean Cmax for total ketones [2]: 2.7 fold
increase of geometric mean Cmax for βHB [2]: 2.9 fold
SMILES: CCCCCCCC(=O)OCC(COC(=O)CCCCCCC)OC(=O)CCCCCCC [tricaprilin]
